Test results as given in patent US12605350B2, “Composition for preventing, ameliorating, or treating disease caused by nitration of tyrosine in proteins comprising tyrosine as effective component” (INDUSTRY-ACADEMIC COOPERATION FOUNDATION GYEONGSANG …, priority 2020, dated 2026).

Biological target: T1, human recombinant MnSOD (Homo sapiens, UniProt P04179)
T1 sequence (P04179 25-222): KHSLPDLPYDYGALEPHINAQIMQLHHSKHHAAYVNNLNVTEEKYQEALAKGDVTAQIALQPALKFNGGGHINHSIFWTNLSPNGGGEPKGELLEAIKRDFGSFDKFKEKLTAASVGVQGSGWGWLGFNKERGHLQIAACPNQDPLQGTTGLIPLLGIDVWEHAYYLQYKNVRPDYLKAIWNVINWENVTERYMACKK
Assay: SOD activity of human recombinant MnSOD treated with peroxynitrite
Format: biochemical
Conditions: human recombinant MnSOD with peroxynitrite (2.1 mM PN), 10 minutes on ice
Experimental: Peroxynitrite was diluted by 40 times with 0.3 M NaOH, and absorbance at 302 nm was measured. Then, it was quantified by using the molar absorption coefficient of peroxynitrite) (ε302=1670 M^−1 cm^−1).
For the measurement of SOD activity, SOD colorimetric activity kit by ThermoFisher was used. Human recombinant MnSOD within reference SOD range, peptide, and peroxynitrite were admixed with one another, and the reaction was allowed to occur on ice for 10 minutes. To a 96-well plate, 10 μl of reference SOD or the reaction mixture, and 50 μl of a substrate solution provided in the kit were added, and the absorbance at 450 nm was measured. After adding 25μl of xanthine oxidase provided in the kit and allowing the reaction to occur for 20 minutes at room temperature, absorbance at 450 nm was measured. By using the data obtained by subtracting the first-measured absorbance from the second-measured absorbance, SOD activity was obtained.

For N[C@H](Cc1ccc(O)cc1)C(=O)O [D-tyrosine], the “MnSOD (SOD) activity” value was “higher MnSOD activity”.
